Patent publication US6281194A, “Cycloalkyl inhibitors of protein farnesyltransferase” (Warner-Lambert Company, priority 1999, dated 2001)
Read-outs that look alike come from different tables or passages of the source.

Legend:
[1] = tested on: ras farnesylation in ras-transformed cells; assay: Gel shift assay; assay type: cell-based; settings: 18-hour incubation
Method: Twenty-four hours after planting 2×10^6 ras-transformed cells per treatment condition, the farnesylation inhibitor is added at varying concentrations. Following an 18-hour incubation period, cells are lysed in phosphate-buffered saline containing 1% Triton X-100, 0.5% sodium deoxycholate, and 0.1% SDS (sodium dodecyl sulfate), pH 7.4 in the presence of several protease inhibitors (PMSF (phenylmethylsulfonylfluoride), antipain, leupeptin, pepstatin A, and aprotinin all at 1 μg/mL). Ras protein is immunoprecipitated from the supernatants by the addition of 3 μg v-H-ras Ab-2 (Y13-259 antibody from Oncogene Science). After overnight immunoprecipitation, 30 μL of a 50% protein G-Sepharose slurry (Pharmacia) is added followed by 45-minute incubation. Pellets are resuspended in 2× tris-glycine loading buffer (Novex) containing 5% β-mercaptoethanol and then denatured by 5 minutes boiling prior to electrophoresis on 14% Tris-glycine SDS gels. Using Western transfer techniques, proteins are transferred to nitrocellulose membranes followed by blocking in blocking buffer. Upon overnight incubation with primary antibody (pan-ras Ab-2 from Oncogene Science), an antimouse HRP (horse radish peroxidase) conjugate secondary antibody (Amersham) is employed for detection of the ras protein. Blots are developed using ECL(enhanced chemiluminescence) techniques (Amersham).

H61 xenografts = assay: In vivo activity, H61 xenografts in NCR-NU mice
Method: Female NCR-NU mice were randomized and then inoculated with trocar fragments of H61 xenografts obtained from donor animals on Day 0 of the experiment. H61 cells are NIH3T3 cells that have been transfected and transformed with mutant human H-ras. The animals were then re-randomized to treatment groups. Tumor-bearing mice were then treated via subcutaneous (SC) or interperitoneal (IP) injections of Example 1 every 12 hours at various dose levels for 14 days beginning on Day 1. Tumors were measured with calipers in two orthogonal dimensions several times per week for the duration of the experiment. Tumor burdens in milligrams were estimated from the caliper measurements by standard methods (mg=axb^2 /2, where a and b are the measurements of the major and minor axes of the tumor, respectively.) Inhibition of tumor growth was assessed at the last day of treatment (14). […] In mice given Example 1 IP at either 37 or 23 mg/kg/injection, no tumors were evident at the sites of inoculation, indicating complete (100%) inhibition of tumor growth.

[2] = biological target: T1, SF9 affinity purified rat farnesyl protein transferase (Rattus norvegicus, UniProt Q02293+Q04631); assay: PFT inhibitory activity; assay type: biochemical
T1 construct: made in house; host or cells: Sf9 insect cells (baculovirus system, inferred from b7)
Method: The protein:farnesyltransferase (PFT) or farnesyl protein transferase (FPT) inhibitory activity of compounds of the present invention were assayed in HEPES buffer (pH 7.4) containing 5 mM potassium phosphate and 20 μM ZnCl2. The solution also contained 5 mM DTT (dithiothreitol), 5 mM MgCl2 and 0.1% PEG 8000. Assays were performed in 96 well plates (Wallec) and employed solutions composed of varying concentrations of a compound of the present invention in 100% DMSO (dimethylsulfoxide). Upon addition of both substrates, radiolabeled farnesyl pyrophosphate ([1-^3 H], specific activity 15-30 Ci/mmol, final concentration 134 nM) and (biotinyl)-Ahe-Thr-Lys-Cys-Val-Ile-Met ([3aS[3a alpha, 4 beta, 6a alpha]-hexahydro-2-oxo-1H-thieno[3,4-d]imidazole-5-pentanoic acid]-[7-aminoheptanoic acid]-Thr-Lys-Cys-Val-Ile-Met) (Ahe is 7-aminoheptanoic acid, Thr is threonine, Lys is lysine, Cys is cysteine, Val is valine, Ile is isoleucine and Met is methionine) (final concentration 0.2 μM), the enzyme reaction was started by addition of SF9 affinity purified rat farnesyl protein transferase. After incubation at 30° C. for 30 minutes, the reaction was terminated by diluting the reaction 2.5-fold with a stop buffer containing 1.5 M magnesium acetate, 0.2 M H3 PO4, 0.5% BSA (bovine serum albumin), and strepavidin beads (Amersham) at a concentration of 1.3 mg/mL. After allowing the plate to settle for 30 minutes at room temperature, radioactivity was quantitated on a microBeta counter (Model 1450, Wallec). The assay was also carried out without 5 mM potassium phosphate.

[3] = tested on: H61 cells: NIH transformed 3T3 H-ras cells; assay: Clonogenic assay (6 well plates); assay type: cell-based; settings: H61 cells in soft agar, colonies counted after Day 13
Method: Clonogenic Assay (6 well plates)
Sometime previous to setting up an actual test:
1. Make up 1.5% Bacto Agar in Milli-Q water and autoclave.
2. Make up 500 mL 2× DMEM-HG without phenol red by combining the following:
1 bottle DMEM base powder (Sigma D-5030)
Adjust pH to 7.1 with HCl; filter sterilize.
1. Set up makeshift water bath (beaker of water with thermometer, on hot plate) in the hood. Keep water temperature between 37° C. to 43° C.
2. […] 1.5% Bacto Agar for approximately 2 minutes on high, or until completely melted. Then let it cool somewhat before using it. (You can keep it from resolidifying by setting the bottle on the hot plate.) […]
Bottom Layer (0.6% agar) Top Layer (0.3% agar)
20% calf serum 20% calf serum
40% Bacto Agar (1.5%) 20% Bacto Agar (1.5%)
(H61 cells: NIH transformed
Depending on the volume of each layer needed, use either 50 mL conical tubes or 200 mL turnip tubes which can be floated in the "water bath".
4. Add 1 mL of bottom layer agar/medium to each well: deliver 1 mL warm agar/medium to a well; then using the tip of the pipet, spread the agar/medium around to completely cover the bottom. Repeat with next well.
5. Allow the plates to set at room temperature for about 5 minutes until the bottom layer solidifies.
6. Label sterile Falcon 2054 (12×75 mm) tubes and add appropriate volume of drug solutions into them.
7. Aliquot 4 μL of DMSO or drug solution per 1 mL of agar/medium to appropriate tubes; then add the agar/medium/cells to each tube. Always add 1 mL more than will actually be needed. Mix up and down in the pipet (gently); then deliver 1 mL to the center of each well. The upper layer is less viscous, so it will generally spread out over the bottom layer unaided. If necessary, rotate the plane of the plate gently to spread the top layer evenly over the bottom layer.
8. Let plates set for 5 or 10 minutes at room temperature to solidify, then put into 5% CO2, 37° C. incubator.
9. On Day 13, add 0.5 mL of INT (tetrazolium 1 mg/mL in Milli-Q H2 O, filter sterilized) and return plates to incubator.

[4] = tested on: EJ-1 human bladder carcinoma, HT1080 human fibrosarcoma and human colon carcinoma xenografts; settings: 100 mg/kg, nude mice; cited from earlier work
[5] = tested on: human lung carcinoma with K-ras mutation and p53 deletion; settings: nude mice; cited from earlier work
[6] = tested on: mammary and salivary carcinomas; settings: daily administration; cited from earlier work
[7] = SC 96 mg/kg/injection every 12 hours for 14 days, last day of treatment (14)
[8] = HEPES buffer pH 7.4 with 5 mM potassium phosphate, read-out: PFT Inhibitory Activity IC50 (μM) HEPES and 5 mM K3 PO4
[9] = HEPES buffer pH 7.4 without 5 mM potassium phosphate, read-out: PFT Inhibitory Activity IC50 (μM) HEPES

Row | Structure (SMILES) | Gel Shift (μM) M.E.D. (minimal effective dose to observe inhibition of ras farnesylation) [1] [µM] | IC50 [2, 8] [µM] | IC50 [2, 9] [µM] | IC50 [3] [nM] | further results
1 | O=C(CN(Cc1ccc(OCc2ccccc2)cc1)C(=O)[C@H](Cc1c[nH]cn1)NC(=O)OCc1ccccc1)NCC1(c2ccccc2)CCC1 [Example 1, (S)-[1-((4-Benzyloxy-benzyl)-{[1-(phenyl-cyclobutylmethyl)-carbamoyl]-methyl}-carbamoyl)-2-(1H-imidazol-4-yl)-ethyl]-carbamic Acid benzyl ester] | 0.02 | 0.006 | 0.075 | 47 | inhibition of tumor growth (H61 xenografts; IP 23 mg/kg/injection every 12 hours for 14 days, no tumors evident at sites of inoculation): 100%; inhibition of tumor growth (H61 xenografts; IP 37 mg/kg/injection every 12 hours for 14 days, no tumors evident at sites of inoculation): 100%; inhibition of tumor growth (H61 xenografts; [7]): 73%; median tumor burden of the treated group (H61 xenografts; [7]): 672 mg; inhibition of tumor growth (in words) (H61 xenografts; SC or IP every 12 hours for 14 days): significantly inhibited tumor growth
2 | O=C(CN(Cc1ccc(OCc2ccccc2)cc1)C(=O)[C@H](Cc1c[nH]cn1)NC(=O)OCc1ccccc1)NCC1(c2ccccc2)CC1 [Example 2] | 0.02 | 0.006 | 0.15 | 180 | –
3 | O=C(CN(Cc1ccc(OCc2ccccn2)cc1)C(=O)[C@H](Cc1c[nH]cn1)NC(=O)OCc1ccccc1)NCC1(c2ccccc2)CCC1 [Example 3] | 0.002 | 0.0017 | 0.14 | 140 | –
4 | O=C(CN(Cc1ccc(OCc2ccccc2)cc1)C(=O)[C@H](Cc1c[nH]cn1)NC(=O)OCc1ccccc1)NCC1(c2ccccc2)CCCC1 [Example 5, (S)-[1-((4-Benzyloxy-benzyl)-{[(1-phenyl-cyclopentylmethyl)-carbamoyl]-methyl}-carbamoyl)-2-(1H-imidazol-4-yl)-ethyl]-carbamic Acid benzyl Ester] | 0.2 | 0.018 | 0.32 | – | IC50 ([3]; 312 h): 320 nM
5 | COc1ccc(CN(CC(=O)NCC2(c3ccccc3)CCC2)C(=O)[C@H](Cc2c[nH]cn2)NC(=O)OCc2ccccc2)cc1 [Example 6, (S)-[1-((4-Methoxy-benzyl)-{[(1-phenyl-cyclobutyl-methyl)-carbamoyl]-methyl}-carbamoyl)-2-(1H-imidazol-4-yl)-ethyl]-carbamic Acid benzyl Ester] | 0.002 | 0.0029 | 0.26 | – | IC50 ([3]; 312 h): 210 nM
6 | COC(=O)[C@H](CCSC)NC(=O)[C@H](/C=C\[C@@H](/C=C/[C@@H](N)CS)C(C)C)Cc1ccccc1 [Example B1086] | – | – | – | – | tumor growth (in words) [4]: inhibit tumor growth
7 | CSCC[C@H](NC(=O)c1ccc(NC[C@@H](N)CS)cc1-c1ccccc1)C(=O)O [FTI276] | – | – | – | – | tumor growth (in words) [5]: selectively block tumor growth
8 | CC[C@H](C)[C@@H](CO[C@@H](Cc1ccccc1)C(=O)N[C@@H](CCS(C)(=O)=O)C(=O)OC(C)C)NC[C@@H](N)CS [L-744,832] | – | – | – | – | tumor regression (in words) [6]: caused tumor regression
